Test results as given in patent US10238670B2, “9-aminomethyl minocycline compounds and methods of use thereof in urinary tract infection (UTI) treatment” (Paratek Pharmaceuticals, Inc., priority 2016, dated 2019).
Values after ≈ are worked out from the molar mass of the structure shown. Like-named read-outs stand apart in the source and are kept apart here.

Legend:
Experiment in all cases: In vitro MIC, 2010 surveillance isolates
[1] = test system: E. faecium VNS; assay type: cell-based; conditions: for Cumulative % Inhibition at MIC: N=614
[2] = test system: Acinetobacter spp; assay type: cell-based; conditions: for range of MICs (N <10, shown instead of MIC90): N=9
[3] = test system: K. oxytoca; assay type: cell-based; conditions: for Cumulative % Inhibition at MIC: N=377
[4] = test system: MR CoNS; assay type: cell-based, Coagulase-Negative Staphylococcus; conditions: for Cumulative % Inhibition at MIC: N=1349
[5] = test system: E. faecium VS; assay type: cell-based; conditions: for Cumulative % Inhibition at MIC: N=575
[6] = test system: E. coli ESBL+; assay type: cell-based, Escherichia coli; conditions: for Cumulative % Inhibition at MIC: N=795
[7] = test system: E. faecalis VS; assay type: cell-based; conditions: for Cumulative % Inhibition at MIC: N=2036
[8] = test system: MS CoNS; assay type: cell-based, Coagulase-Negative Staphylococcus; conditions: for Cumulative % Inhibition at MIC: N=461
[9] = test system: MSSA; assay type: cell-based; conditions: for Cumulative % Inhibition at MIC: N=5713

For `CN(C)c1cc(CNCC(C)(C)C)c(O)c2c1C[C@H]1C[C@H]3[C@H](N(C)C)C(O)=C(C(N)=O)C(=O)[C@@]3(O)C(O)=C1C2=O` [Compound 1, 9-[(2,2-dimethyl-propylamino)-methyl]-minocycline], which MIC90 ([1]; Europe, N=71) is on record?
The MIC90 was 0.25 µg/mL (≈ 0.449 µM).

What about the MIC90 ([1]; L. Amer, N=41) of the same compound?
Its MIC90 is 0.12 µg/mL (≈ 0.216 µM).

What about the “Cumulative % Inhibition at MIC” value ([1]; MIC 1 μg/ml) of the same compound?
Its value is 100%.

What about the “Cumulative % Inhibition at MIC” value ([1]; MIC ≤0.5 μg/ml, listed as head image P00004) of the same compound?
The value was 98.4%.

What about the MIC90 ([1]; N America, N=478) of the same compound?
The MIC90 was 0.25 µg/mL (≈ 0.449 µM).

What about the “range of MICs (N <10, shown instead of MIC90)” value ([2]; Asia/Pac) of the same compound?
Its value is 0.06-2.

What about the MIC90 ([2]; Europe, N=43) of the same compound?
The MIC90 was 4 µg/mL (≈ 7.19 µM).

And the “range of MICs (N <10, shown instead of MIC90)” value ([2]; L. Amer)?
Its value is 0.03-4.

What about the MIC90 ([2]; N America, N=42) of the same compound?
Its MIC90 is 2 µg/mL (≈ 3.59 µM).

What about the MIC90 ([3]; Asia/Pac, N=17) of the same compound?
The MIC90 was 2 µg/mL (≈ 3.59 µM).

And the MIC90 ([3]; Europe, N=158)?
Its MIC90 is 2 µg/mL (≈ 3.59 µM).

What about the MIC90 ([3]; L. Amer, N=25) of the same compound?
The MIC90 was 4 µg/mL (≈ 7.19 µM).

And the “Cumulative % Inhibition at MIC” value ([3]; MIC 1 μg/ml)?
Its value is 57.6%.

And the “Cumulative % Inhibition at MIC” value ([3]; MIC 2 μg/ml)?
Its value is 89.4%.

And the “Cumulative % Inhibition at MIC” value ([3]; MIC 4 μg/ml)?
The value was 95.2%.

And the “Cumulative % Inhibition at MIC” value ([3]; MIC 8 μg/ml)?
Its value is 98.7%.

And the “Cumulative % Inhibition at MIC” value ([3]; MIC 16 μg/ml)?
Its value is 99.7%.

What about the “Cumulative % Inhibition at MIC” value ([3]; MIC ≤0.5 μg/ml, listed as head image P00013) of the same compound?
The value was 2.1%.

And the “Cumulative % Inhibition at MIC” value ([3]; MIC ≥32 μg/ml)?
Its value is 100%.

What about the MIC90 ([3]; N America, N=177) of the same compound?
Its MIC90 is 4 µg/mL (≈ 7.19 µM).

And the MIC90 ([4]; Asia/Pac, N=77)?
The MIC90 was 1 µg/mL (≈ 1.8 µM).

What about the MIC90 ([4]; Europe, N=510) of the same compound?
Its MIC90 is 1 µg/mL (≈ 1.8 µM).

And the MIC90 ([4]; L. Amer, N=301)?
Its MIC90 is 1 µg/mL (≈ 1.8 µM).

What about the “Cumulative % Inhibition at MIC” value ([4]; MIC 1 μg/ml) of the same compound?
Its value is 99.1%.

What about the “Cumulative % Inhibition at MIC” value ([4]; MIC 2 μg/ml) of the same compound?
Its value is 100%.

What about the “Cumulative % Inhibition at MIC” value ([4]; MIC ≤0.5 μg/ml) of the same compound?
The value was 85.9%.

What about the MIC90 ([4]; N America, N=461) of the same compound?
The MIC90 was 1 µg/mL (≈ 1.8 µM).

What about the MIC90 ([5]; Asia/Pac, N=106) of the same compound?
The MIC90 was 0.25 µg/mL (≈ 0.449 µM).

What about the MIC90 ([5]; Europe, N=303) of the same compound?
Its MIC90 is 0.12 µg/mL (≈ 0.216 µM).

And the MIC90 ([5]; L. Amer, N=51)?
The MIC90 was 0.12 µg/mL (≈ 0.216 µM).

What about the “Cumulative % Inhibition at MIC” value ([5]; MIC 1 μg/ml) of the same compound?
Its value is 100%.

What about the “Cumulative % Inhibition at MIC” value ([5]; MIC ≤0.5 μg/ml, listed as head image P00003) of the same compound?
Its value is 99.8%.

What about the MIC90 ([5]; N America, N=115) of the same compound?
The MIC90 was 0.25 µg/mL (≈ 0.449 µM).

And the MIC90 ([6]; Asia/Pac, N=219)?
The MIC90 was 2 µg/mL (≈ 3.59 µM).

What about the MIC90 ([6]; ESBL-producing E. coli) of the same compound?
Its MIC90 is 4 µg/mL (≈ 7.19 µM).

And the MIC90 ([6]; Escherichia coli, ESBL-producing E. coli, read-out: MIC90)?
The MIC90 was under 4 µg/mL.

And the MIC90 ([6]; Europe, N=274)?
The MIC90 was 4 µg/mL (≈ 7.19 µM).

What about the MIC90 ([6]; L. Amer, N=168) of the same compound?
Its MIC90 is 4 µg/mL (≈ 7.19 µM).

And the “Cumulative % Inhibition at MIC” value ([6]; MIC 1 μg/ml)?
Its value is 63.0%.

And the “Cumulative % Inhibition at MIC” value ([6]; MIC 2 μg/ml)?
The value was 87.5%.

What about the “Cumulative % Inhibition at MIC” value ([6]; MIC 4 μg/ml) of the same compound?
The value was 97.7%.

And the “Cumulative % Inhibition at MIC” value ([6]; MIC 8 μg/ml)?
The value was 99.5%.

And the “Cumulative % Inhibition at MIC” value ([6]; MIC 16 μg/ml)?
Its value is 99.9%.

And the “Cumulative % Inhibition at MIC” value ([6]; MIC ≤0.5 μg/ml, listed as head image P00006)?
Its value is 30.4%.

And the “Cumulative % Inhibition at MIC” value ([6]; MIC ≥32 μg/ml)?
Its value is 100%.

And the MIC90 ([6]; N America, N=134)?
Its MIC90 is 4 µg/mL (≈ 7.19 µM).

What about the MIC90 ([7]; Asia/Pac, N=214) of the same compound?
Its MIC90 is 0.5 µg/mL (≈ 0.898 µM).

And the MIC90 ([7]; Europe, N=669)?
The MIC90 was 0.25 µg/mL (≈ 0.449 µM).

And the MIC90 ([7]; L. Amer, N=290)?
The MIC90 was 0.25 µg/mL (≈ 0.449 µM).

What about the “Cumulative % Inhibition at MIC” value ([7]; MIC 1 μg/ml) of the same compound?
The value was 99.9%.

What about the “Cumulative % Inhibition at MIC” value ([7]; MIC 2 μg/ml) of the same compound?
The value was 100%.

And the “Cumulative % Inhibition at MIC” value ([7]; MIC ≤0.5 μg/ml, listed as head image P00001)?
The value was 99.3%.

And the MIC90 ([7]; N America, N=863)?
Its MIC90 is 0.5 µg/mL (≈ 0.898 µM).

What about the MIC90 ([8]; Asia/Pac, N=18) of the same compound?
Its MIC90 is 0.25 µg/mL (≈ 0.449 µM).

And the MIC90 ([8]; Europe, N=185)?
Its MIC90 is 1 µg/mL (≈ 1.8 µM).

And the MIC90 ([8]; L. Amer, N=67)?
The MIC90 was 0.5 µg/mL (≈ 0.898 µM).

And the “Cumulative % Inhibition at MIC” value ([8]; MIC 1 μg/ml)?
Its value is 99.8%.

And the “Cumulative % Inhibition at MIC” value ([8]; MIC 2 μg/ml)?
Its value is 100%.

And the “Cumulative % Inhibition at MIC” value ([8]; MIC ≤0.5 μg/ml)?
The value was 92.4%.

And the MIC90 ([8]; N America, N=191)?
The MIC90 was 0.5 µg/mL (≈ 0.898 µM).

And the MIC90 ([9]; Asia/Pac, N=641)?
Its MIC90 is 0.5 µg/mL (≈ 0.898 µM).

What about the MIC90 ([9]; Europe, N=2109) of the same compound?
The MIC90 was 0.25 µg/mL (≈ 0.449 µM).

What about the MIC90 ([9]; L. Amer, N=590) of the same compound?
Its MIC90 is 0.25 µg/mL (≈ 0.449 µM).

And the “Cumulative % Inhibition at MIC” value ([9]; MIC 1 μg/ml)?
Its value is 99.9%.

And the “Cumulative % Inhibition at MIC” value ([9]; MIC 2 μg/ml)?
Its value is 100%.

What about the “Cumulative % Inhibition at MIC” value ([9]; MIC ≤0.5 μg/ml) of the same compound?
The value was 99.7%.

And the MIC90 ([9]; N America, N=2373)?
The MIC90 was 0.25 µg/mL (≈ 0.449 µM).
